Experimental data from PubChem BioAssay AID2060513 (Molecular Pharmacology Branch, DTP, NCI, 2025).
pIC50: −log10 of the molar value.

System: 299254-011-R-J1-PDC complex spheroids viability
Assay: Anticancer human tumor 299254-011-R-J1-PDC patient-derived melanoma cell line growth inhibition [GQUAD]
Conditions: for pIC50: curve of first compound; for viability, T/C: stronger effect = lower value
Excerpt: DNA G-quadruplex Stabilizer Agents in Combinations in Complex Spheroids
A high-throughput screen of multi-cell type tumor spheroids was designed to identify active combinations of DNA G-quadruplex stabilizer agents and targeted small molecules. Complex spheroids include a stromal component modeled by human endothelial cells (HUVEC) and fibroblasts modeled by human mesenchymal stem cells (MSCs). The concentration ranges selected for each drug and investigational agent were based upon clinically achievable concentrations if the clinical Cmax of the agent was known.
Compounds. The drugs and investigational agents: pidnarulex (CX-5461; NSC782164), APTO-253 (NSC789042), BRACO-19 (NSC847499), peposertib (NSC802822), ceralasertib (NSC780249), elimusertib (NSC800525), camonsertib (NSC841442), AZD-1390 (NSC803789), olaparib (NSC753686), talazoparib (NSC767125), ART-558 (NSC835418), sotorasib (NSC818433), MRTX-1133 (NSC836407), SN-38 (NSC673596), topotecan (NSC609699), etoposide (NSC141540), doxorubicin (NSC123127), gemcitabine (NSC613327), 5-fluorouracil (NSC19893), paclitaxel (NSC125973), vemurafenib (NSC761431), panobinostat (NSC761190), R-306465 (JNJ-16241199; NSC773264), adavosertib (NSC754352), TP-3654 (NSC805149), carboplatin (NSC241240), KSQ-4279 (NSC840948), and staurosporine (NSC755774) were obtained from the National Cancer Institute (NCI) Developmental Therapeutics Program Chemical Repository (34). The FDA-approved anticancer drug set is available from the NCI Developmental Therapeutics Program. […] The stock solutions were prepared in dimethyl sulfoxide (DMSO, Sigma-Aldrich, St. Louis, MO, cat. D2650) at 800-fold the tested concentration and stored at -70 degrees C prior to their use. All drugs and investigational agents were tested over a range starting from a high concentration at or near the clinical Cmax and decreasing in half-log increments. If the clinical Cmax for an agent had not been determined, the highest concentration tested was 10 microM.
2.3 Cell Culture. All cells were maintained in an incubator at 37 degrees C and 5% CO2 with 95% humidity. The PDC lines were cultured according to standard operating procedures established by the NCI PDMR. All PDCs were thawed and cultured in Matrigel-coated flasks prepared with a working solution of 1X Ham's F-12 nutrient mix, without supplementation (Invitrogen, cat. 11765054), 100 U/mL penicillin-streptomycin (Invitrogen, cat. 15140122), and 2.5% Matrigel (Corning Inc., cat. 354248) for the first three passages. The 857933-349-R-J2-PDC line was cultured in 6C/Colon 1B media, which includes advanced DMEM/F-12 (Thermo Fisher Scientific, cat. 12634028), 10 mM HEPES (Thermo Fisher Scientific, cat. 15630080), 1X GlutaMAX supplement (Thermo Fisher Scientific, cat. 35050061), 0.1 mg/mL primocin (InvivoGen, cat. ant-pm-2), 10% defined fetal bovine serum, heat inactivated (HyClone Laboratories Inc., cat. SH30070.03HI), 50% L-WRN conditioned media (ATCC, cat. CRL-3276), 1.25 mM N-Acetyl-L-cysteine (Sigma-Aldrich, cat. A9165), 10 mM nicotinamide (Sigma-Aldrich, cat. N0636), 1X B-27 supplement (Thermo Fisher Scientific, cat. 17504044), 1X N-2 supplement (Thermo Fisher Scientific, cat. 17502048), 10 microM Y-27632 dihydrochloride (Tocris Bioscience, cat. 1254), and 50 ng/mL human EGF recombinant protein (Thermo Fisher Scientific, cat. PHG0311). The 485176-168-R4-J1-PDC line was cultured in Panc media, which includes all 6C/Colon 1B media components plus 100 ng/mL human FGF-10 (Thermo Fisher Scientific, cat. 100-26), 500 nM SB-431542 (Selleckchem, cat. S1067), and gastrin (Tocris, cat. 3006).
[…]

[1] = second compound 0.0316 µM, first compound 0.0316 µM
[2] = second compound 0.0316 µM, first compound 0.1 µM
[3] = second compound 0.0316 µM, first compound 0.316 µM
[4] = second compound 0.0316 µM, first compound 1 µM
[5] = second compound 0.0316 µM, first compound 3.16 µM
[6] = second compound 0.0316 µM, first compound 10 µM
[7] = second compound 0.1 µM, first compound 0.0316 µM
[8] = second compound 0.1 µM, first compound 0.1 µM
[9] = second compound 0.1 µM, first compound 0.316 µM
[10] = second compound 0.1 µM, first compound 1 µM
[11] = second compound 0.1 µM, first compound 3.16 µM
[12] = second compound 0.1 µM, first compound 10 µM
[13] = second compound 0.316 µM, first compound 0.0316 µM
[14] = second compound 0.316 µM, first compound 0.1 µM
[15] = second compound 0.316 µM, first compound 0.316 µM
[16] = second compound 0.316 µM, first compound 1 µM
[17] = second compound 0.316 µM, first compound 3.16 µM
[18] = second compound 0.316 µM, first compound 10 µM
[19] = second compound 1 µM, first compound 0.0316 µM
[20] = second compound 1 µM, first compound 0.1 µM
[21] = second compound 1 µM, first compound 0.316 µM
[22] = second compound 1 µM, first compound 1 µM
[23] = second compound 1 µM, first compound 3.16 µM
[24] = second compound 1 µM, first compound 10 µM
[25] = second compound 3.16 µM, first compound 0.0316 µM
[26] = second compound 3.16 µM, first compound 0.1 µM
[27] = second compound 3.16 µM, first compound 0.316 µM
[28] = second compound 3.16 µM, first compound 1 µM
[29] = second compound 3.16 µM, first compound 3.16 µM
[30] = second compound 3.16 µM, first compound 10 µM
[31] = second compound 10 µM, first compound 0.0316 µM
[32] = second compound 10 µM, first compound 0.1 µM
[33] = second compound 10 µM, first compound 0.316 µM
[34] = second compound 10 µM, first compound 1 µM
[35] = second compound 10 µM, first compound 3.16 µM
[36] = second compound 10 µM, first compound 10 µM
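Also: spheroids exposed to the agents for seven days before readout.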
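For viability, T/C in this document: percent viability relative to DMSO vehicle control wells = 100%.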

What does the source list for `CC(C)(O)C1CCC(Nc2ccc3ncc(-c4cccc(C(F)(F)F)c4)n3n2)CC1` (centres undefined) + CN(C)c1ccc(Nc2c3ccc(NC(=O)CCN4CCCC4)cc3nc3cc(NC(=O)CCN4CCCC4)ccc23)cc1?
pIC50 (second compound 0.0316 µM): < 5.00; pIC50 (second compound 0.1 µM): < 5.00; pIC50 (second compound 0.316 µM): < 5.00; pIC50 (second compound 1 µM): < 5.00; pIC50 (second compound 3.16 µM): < 5.00; pIC50 (second compound 10 µM): 5.56; viability, T/C [1]: 107%; viability, T/C [2]: 117%; viability, T/C [3]: 130%; viability, T/C [4]: 98.6%; viability, T/C [5]: 95.1%; viability, T/C [6]: 92.2%; viability, T/C [7]: 97.2%; viability, T/C [8]: 94.7%; viability, T/C [9]: 97.8%; viability, T/C [10]: 94.5%; viability, T/C [11]: 94%; viability, T/C [12]: 121%; viability, T/C [13]: 103%; viability, T/C [14]: 92%; viability, T/C [15]: 101%; viability, T/C [16]: 89.5%; viability, T/C [17]: 85.1%; viability, T/C [18]: 133%; viability, T/C [19]: 89.7%; viability, T/C [20]: 103%; viability, T/C [21]: 88.6%; viability, T/C [22]: 107%; viability, T/C [23]: 82.8%; viability, T/C [24]: 100%; viability, T/C [25]: 91.5%; viability, T/C [26]: 93.9%; viability, T/C [27]: 117%; viability, T/C [28]: 112%; viability, T/C [29]: 65.5%; viability, T/C [30]: 84.2%; viability, T/C [31]: 105%; viability, T/C [32]: 103%; viability, T/C [33]: 103%; viability, T/C [34]: 111%; viability, T/C [35]: 27.6%; viability, T/C [36]: 56.4%

Which results are given for `COc1ncnc(C2CC2)c1-c1ncc2cnn(Cc3ccc(-c4nc(C(F)(F)F)cn4C(C)C)cc3)c2n1` + CN(C)c1ccc(Nc2c3ccc(NC(=O)CCN4CCCC4)cc3nc3cc(NC(=O)CCN4CCCC4)ccc23)cc1?
pIC50 (second compound 0.0316 µM): < 5.00; pIC50 (second compound 0.1 µM): < 5.00; pIC50 (second compound 0.316 µM): < 5.00; pIC50 (second compound 1 µM): < 5.00; pIC50 (second compound 3.16 µM): < 5.00; pIC50 (second compound 10 µM): < 5.00; viability, T/C [1]: 92.6%; viability, T/C [2]: 78.1%; viability, T/C [3]: 106%; viability, T/C [4]: 98.3%; viability, T/C [5]: 101%; viability, T/C [6]: 88%; viability, T/C [7]: 102%; viability, T/C [8]: 97.3%; viability, T/C [9]: 114%; viability, T/C [10]: 96.3%; viability, T/C [11]: 97.4%; viability, T/C [12]: 121%; viability, T/C [13]: 101%; viability, T/C [14]: 103%; viability, T/C [15]: 92.2%; viability, T/C [16]: 99.4%; viability, T/C [17]: 101%; viability, T/C [18]: 117%; viability, T/C [19]: 117%; viability, T/C [20]: 77%; viability, T/C [21]: 98.6%; viability, T/C [22]: 98.6%; viability, T/C [23]: 99.8%; viability, T/C [24]: 107%; viability, T/C [25]: 86.9%; viability, T/C [26]: 99.8%; viability, T/C [27]: 86.5%; viability, T/C [28]: 105%; viability, T/C [29]: 113%; viability, T/C [30]: 104%; viability, T/C [31]: 93.3%; viability, T/C [32]: 110%; viability, T/C [33]: 96.2%; viability, T/C [34]: 79.4%; viability, T/C [35]: 89.5%; viability, T/C [36]: 93.7%
